Reference: patent publication US20110034397A1, “INTESTINAL IMMUNE SYSTEM STIMULATOR” (priority 2008, published 2011)

Tests used:
mouse spleen cells [1] = assay: Antibody production by mouse spleen cells stimulated with LPS (ELISA of culture supernatant); assay type: cell-based; conditions: 5 μg LPS, cultured 5 days, versus phosphate buffer control, FIG. 1
Experimental: Six- to eight-week-old BALB mice (female) were fed for 1 week a commercially-available solid feed and provided with tap water. To evaluate the influence of γ-glutamylcysteine on antibody production, a culture system using mouse spleen cells was employed. The spleen cells were collected from the BALB-c mice (n=3), then washed and suspended in RPMI 1640 medium (10% FCS, 50 U/ml penicillin, 50 μg/ml streptomycin). The cells were adjusted so that there were 1×10^6 cells per 48-well culture plate, and then either γ-glutamylcysteine or glutathione (purchased from Sigma) each dissolved in a phosphate buffer, was added to the plates. A phosphate buffer was added to plates as a control. Then, the cells were stimulated with 5 μg of LPS (lipopolysaccharide, obtained from Sigma). […] The cells were then cultured in a CO2 incubator at 37° C. for 5 days, and the amounts of the antibodies in the supernatant were analyzed. The amounts of IgA and IgG were measured by the ELISA method. […] The reaction was stopped with 100 μl of 3 M NaOH/well, and the absorbance was measured at 405 nm. IgA was measured in accordance with the same method as for IgG except that a rat anti-mouse IgA antibody (BD Biosciences) was used as the immobilized antibody. […]

BALB/c male mice = assay type: in vivo, mouse; conditions: relative index, non-administered control group = 1, 10 mg/kg B.W./day by gavage, 7 days
Experimental: Five-week-old BALB/c male mice (n=6) were fed for 1 week and then used in this experiment. A commercially-available feed was used, and the mice' access to the feed was unrestricted, and tap water was provided. γ-Glutamylcysteine was dissolved in sterilized physiological saline, and gavage administration was performed at 10 mg/kg B.W./day. The administration period was 7 days. During the administration period, the body weights were measured every day immediately before the administration to determine the dosage. There was no difference between the body weights of the different groups. On day 7 after the start of the test, a necropsy examination was performed. Anesthesia was performed by interperitoneal administration with a pentobarbital formulation. At laparotomy, blood was collected from the abdominal aorta. The small intestinal contents were also collected. Serum was collected from the blood, and the total IgA and total IgG concentrations were measured using an ELISA kit. The intestinal contents were diluted 10-fold with PBS and suspended sufficiently, and centrifugation was then performed to separate the […]. The total IgA concentration was measured by ELISA in the same way as in Example 1. In the table, γ-EC represents γ-glutamylcysteine. […] However, the amounts of serum IgA and serum IgG were found not to increase, and it was confirmed that the peptide was able to stimulate the immunoactivity in the intestinal mucosa.

mouse spleen cells [2] = assay: Antibody production by mouse spleen cells stimulated with ConA (ELISA of culture supernatant); assay type: cell-based; conditions: 0.5 μg ConA, cultured 5 days, versus control, FIG. 3
Experimental: Six- to eight-week-old BALB mice (female) were fed for 1 week a commercially-available solid feed and provided with tap water. To evaluate the influence of γ-glutamylcysteine on antibody production, a culture system using mouse spleen cells was employed. The spleen cells were collected from the BALB-c mice (n=3), then washed and suspended in RPMI 1640 medium (10% FCS, 50 U/ml penicillin, 50 μg/ml streptomycin). The cells were adjusted so that there were 1×10^6 cells per 48-well culture plate, and then either γ-glutamylcysteine or glutathione (purchased from Sigma) each dissolved in a phosphate buffer, was added to the plates. A phosphate buffer was added to plates as a control. […] The cells were again adjusted so that there were 1×10^6 cells per 48-well culture plate, and then stimulated with 0.5 μg of ConA (concanavalin A) in the presence or absence of γ-glutamylcysteine or glutathione. The cells were then cultured in a CO2 incubator at 37° C. for 5 days, and the amounts of the antibodies in the supernatant were analyzed. The amounts of IgA and IgG were measured by the ELISA method. The method for measuring IgG is described below. […] The reaction was stopped with 100 μl of 3 M NaOH/well, and the absorbance was measured at 405 nm. IgA was measured in accordance with the same method as for IgG except that a rat anti-mouse IgA antibody (BD Biosciences) was used as the immobilized antibody. […]

N[C@@H](CCC(=O)N[C@@H](CS)C(=O)O)C(=O)O [γ-glutamylcysteine, γ-Glutamylcysteine]
amounts of IgA produced (mouse spleen cells [1]): increase production of IgA as compared with glutathione | Serum IgA (BALB/c male mice): 0.3 | Serum IgG (BALB/c male mice): 0.6 | Small intestine IgA (BALB/c male mice; total IgA in small intestinal contents): 3.0 | amounts of IgA produced (mouse spleen cells [2]): increase production of IgA as compared with glutathione
